# Earlier results as cited in US7612104B2, “Bicyclic aryl-sulfonic acid [1,3,4]-thiadiazol-2-yl-amides, processes for their preparation, pharmaceutical compositions and methods for their use” (Sanofi-Aventis, priority 2005, dated 2009).
# Read-outs that look alike come from different tables or passages of the source.
# Experiments:
# PPARdelta [1] = conditions: diabetic animal model; cited from earlier work
# PPARdelta [2] = target: T1, PPARdelta (Macaca mulatta, UniProt I0FFS1); conditions: obese, insulin resistant rhesus monkeys; cited from earlier work
# T1 construct: host or cells: rhesus monkeys in vivo
# T1 sequence (I0FFS1 1-441): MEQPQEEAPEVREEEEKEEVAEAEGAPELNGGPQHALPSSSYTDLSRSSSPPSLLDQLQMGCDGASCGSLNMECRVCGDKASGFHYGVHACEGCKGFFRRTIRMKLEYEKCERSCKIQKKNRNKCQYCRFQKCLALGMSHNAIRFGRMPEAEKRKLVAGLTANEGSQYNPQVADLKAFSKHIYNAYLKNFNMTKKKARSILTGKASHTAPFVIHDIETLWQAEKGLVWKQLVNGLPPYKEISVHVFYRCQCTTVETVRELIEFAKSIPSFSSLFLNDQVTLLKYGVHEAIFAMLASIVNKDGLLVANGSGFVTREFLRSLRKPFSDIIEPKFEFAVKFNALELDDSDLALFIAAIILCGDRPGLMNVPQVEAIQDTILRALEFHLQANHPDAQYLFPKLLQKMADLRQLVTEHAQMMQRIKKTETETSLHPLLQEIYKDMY
# PPARdelta/PPARalpha [3] = conditions: rhesus and cynomolgus monkeys; cited from earlier work
# PPARdelta/PPARalpha [4] = conditions: two weeks clinical trials in healthy volunteers; cited from earlier work
smiles,measurement,setting,value
CCCc1c(OCCCOc2ccc(OCC(=O)O)cc2)ccc(C(C)=O)c1O [Example L-165041],plasma cholesterol,PPARdelta [1],raises plasma cholesterol
Cc1cc(SCc2sc(-c3ccc(C(F)(F)F)cc3)nc2C)ccc1OCC(=O)O [GW501516],HDL-cholesterol,PPARdelta [2],raises
same,insulin levels,PPARdelta [2],decreases
same,plasma LDL-cholesterol,PPARdelta [2],decreases
same,triglycerides,PPARdelta [2],decreases
CCCc1c(OCCCSc2nnc(SCC(=O)O)s2)ccc(C(C)=O)c1O [YM-16638],plasma lipids,PPARdelta/PPARalpha [3],significantly lowers
same,plasma lipids,PPARdelta/PPARalpha [4],acts in a similar manner
